Assay results: patent US20120230974A1, “ALKALINE ALPHA GALACTOSIDASE FOR THE TREATMENT OF FABRY DISEASE” (PROTALIX LTD, priority 2009, published 2012)
One block for each molecule: values may come before it.

Experiments:
[1] = In vitro hydrolysis of Gb3-NBD by alpha galactosidases from different sources under various pH conditions (TLC); format: biochemical; details: phosphate buffer pH 6.5, 60 min 37° C., a-Gal 50 ug/ml
Method: Green Coffee Bean-GCB a-Gal (Sigma #G8507)
Plant recombinant human alpha galactosidase was produced as described in WO2008/132743 (alpha-Gal-KDEL).
Commercial recombinant human alpha galactosidase (Replagal, Shire)
The following protocol was used for NBD-Gb3 hydrolysis:
90 μl activity buffer [citrate phosphate pH=4.6; phosphate buffer pH=6.5
10 μl of NBD-Gb3 0.35 ug/ul in Ethanol [35 ug/ml in reaction]
5 μl of a-Gal 1 mg/ml [50 ug/ml in reaction]
Incubation for 60 min in 37° C.
100 μl chloroform were added followed by vortex
50 μl methanol were added followed by vortex
Injection on TLC silica-60 plate, Chloroform: methanol: H2O [100:42:6] as mobile phase.

[2] = Activity assay with NBD-Gb3 in PBS pH 7.4 (HP-TLC); format: biochemical
Method: a-Gals: prh-alpha galactosidase, GCB a-Gal (endogenous green coffee bean).
80 μl PBS (sigma), pH=7.4
10 μl of NBD-Gb3 0.1 μg/ul in Ethanol [10 ug/ml in reaction]
10 μl of a-Gal 1 mg/ml [100 μg/ml in reaction]
Incubated for 60 min in 37° C.
150 μl chloroform: methanol (2:1) were added followed by vortex the lower phase pulled out speed-vac was effected to complete evaporation and the pellet dissolved in 50 μl Chloroform: methanol [1:1] All samples were injected on HP-TLC silica-60 plate [40 ul ]
Chloroform: methanol: H2O [100:42:6].

[3] = Biodistribution of fluorescent Gb3 in WT and Fabry mice; format: in vivo
Description: For testing the hypothesis that circulating Gb3 can reach and accumulate in organs, organ uptake and biodistribution of fluorescent Gb3 (N-Dodecanoyl-NBD-ceramide trihexoside) in wild type (WT) and Fabry mice were effected.
Animals: Mice: Fabry mice and WT mice
Group Size: total 12 male mice, n=2
Materials: fluorescent Gb3 (N-Dodecanoyl-NBD-ceramide trihexoside; Catalog #: 1631, Matreya Pa. 16823 USA
Jackson B6J129Gla α-galactosidase-A-deficient mice (“Fabry mice”) were purchased from Jackson Laboratories. These mice are characterized by being totally deficient in α-Galactosidase-A activity and progressively accumulate Gb3 in both plasma and in the lysosomes of most tissues (in particular, the liver, spleen, heart, skin, and kidneys). In addition, these mice have no clinical disease phenotype and survive a normal laboratory life span (>2 years). Hemizygous affected males were bred to homozygous affected females, thereby providing only affected offspring. For these studies, all mice were affected adult males 12 to 30 weeks of age at study initiation.
Administration: IV injection, tail vein.
Gb3-NBD was injected to wild type and Fabry mice. Blood was collected 1 hour and 24 hours following injection and plasma was prepared using accepted methods. Gb3-NBD levels were determined using Fluorescent Elisa reader (Infinite M200; Tecan, Switzerland), subtracting basal fluorescent levels plasma of control mice injected with saline.
Gb3 presence was also detected with HP TLC (CAMAG, Switzerland)
Organs (liver, kidney heart and spleen) were collected from the mice of the experiment described above, and Gb3-NBD levels were determined by fluorescence detector and HPTLC as described. As the experiment was initial, low levels of Injected Gb3 NBD were given.

[4] = clinical studies; cited from earlier work

Molecule: Green coffee bean alpha gal: Endogenous green coffee bean alpha galactosidase (Sigma #G8507)
Hydrolysis of Gb3-NBD to lactosylceramide-NBD [1]: can hydrolyze NBD-Gb3
Activity compared with plant recombinant human alpha Gal (upshift of band) ([2]; PBS pH 7.4): works better
Enzymatic activity on NBD-Gb3 under neutral to basic pH ([2]; PBS pH 7.4, 60 min 37° C., a-Gal 100 μg/ml, HP-TLC): demonstrate enzymatic activity
Activity under alkaline pH compared with the acidic conditions of FIG. 3 ([2]; pH 7.4 vs acidic conditions of FIG. 3): more active under alkaline pH conditions

Gb3-NBD levels in plasma (fluorescence) ([3]; 24 hours following iv injection, 320 ug/kg, WT and Fabry mice): fluorescence only in Fabry mice
Gb3-NBD bands in organs by HPTLC ([3]; iv 320 ug/kg, inconclusive due to high background): only in Fabry mice
Molecule: N-Dodecanoyl-NBD-ceramide trihexoside [Gb3-NBD]
Gb3-NBD fluorescent levels in plasma and organs (liver, kidney, heart, spleen) ([3]; iv 320 ug/kg, fluorescence detector): only detectable in Plasma (FIG. 5) and Liver

B1: Replagal: Commercial recombinant human alpha galactosidase (Replagal, Shire) (protein, UniProt P06280 32-429, looked up)
Alpha-galactosidase A: LDNGLARTPTMGWLHWERFMCNLDCQEEPDSCISEKLFMEMAELMVSEGWKDAGYEYLCIDDCWMAPQRDSEGRLQADPQRFPHGIRQLANYVHSKGLKLGIYADVGNKTCAGFPGSFGYYDIDAQTFADWGVDLLKFDGCYCDSLENLADGYKHMSLALNRTGRSIVYSCEWPLYMWPFQKPNYTEIRQYCNHWRNFADIDDSWKSIKSILDWTSFNQERIVDVAGPGGWNDPDMLVIGNFGLSWNQQVTQMALWAIMAAPLFMSNDLRHISPQAKALLQDKDVIAINQDPLGKQGYQLRQGDNFEVWERPLSGLAWAVAMINRQEIGGPRSYTIAVASLGKGVACNPACFITQLLPVKRKLGFYEWTSRLRSHINPTGTVLLQLENTMQMSLKDLL
modifications: agalsidase alfa
Hydrolysis of Gb3-NBD to lactosylceramide-NBD [1]: can partially hydrolyze Gb3
Clearance of Gb3 from plasma, kidney cells, capillary endothelial cells of heart and skin [4]: proven efficacious

B2: Fabrazyme: Recombinant form of human α-galactosidase A (agalsidase beta, Genzyme) (protein, UniProt P06280 32-429, looked up)
Alpha-galactosidase A: LDNGLARTPTMGWLHWERFMCNLDCQEEPDSCISEKLFMEMAELMVSEGWKDAGYEYLCIDDCWMAPQRDSEGRLQADPQRFPHGIRQLANYVHSKGLKLGIYADVGNKTCAGFPGSFGYYDIDAQTFADWGVDLLKFDGCYCDSLENLADGYKHMSLALNRTGRSIVYSCEWPLYMWPFQKPNYTEIRQYCNHWRNFADIDDSWKSIKSILDWTSFNQERIVDVAGPGGWNDPDMLVIGNFGLSWNQQVTQMALWAIMAAPLFMSNDLRHISPQAKALLQDKDVIAINQDPLGKQGYQLRQGDNFEVWERPLSGLAWAVAMINRQEIGGPRSYTIAVASLGKGVACNPACFITQLLPVKRKLGFYEWTSRLRSHINPTGTVLLQLENTMQMSLKDLL
modifications: agalsidase beta
Clearance of Gb3 from plasma, kidney cells, capillary endothelial cells of heart and skin [4]: proven efficacious
